Results published in patent publication US12690608B2, “Arecoline salt and preparation method and product thereof” (priority 2020, dated 2026).

Columns and labels:
[1] = Surface temperature of heating element while heating the heat-not-burn cigarette (infrared thermal imager)
Description: The heat-not-burn cigarette prepared by the above preparation method is heated by an aerosol generation apparatus (by means of resistance heating), and surface temperature of a heating element in a working state is tested by an infrared thermal imager.

[2] = Physicochemical analysis: appearance on standing at room temperature; conditions: salt prepared at molar ratio of arecoline to benzoic acid of 1; viscous yellow oily substance
[3] = Comparison test on atomization (smoking machine, Cambridge filter, conversion rate k); format: physicochemical; conditions: concentrations 1-15%
[4] = system: smokers; test: Comparison test on puff experience (scores by multiple smokers); format: in vivo; conditions: same content (3%)
Description: An arecoline salt and an arecoline hydrobromide of the same content (3%) are selected for puff experience tests, and scores are given from 0 to 5 in terms of pleasure, increased heart rate, ruddy face, body fever, slight sweating and so on by evaluation of multiple smokers.

## COC(=O)C1=CCCN(C)C1.O=C(O)c1ccccc1 [arecoline salt, benzoate of arecoline]
[1]; in heat-not-burn cigarette, generates a smokable aerosol
  Temperature at which the arecoline salt in the cigarette can be atomized: 150-250 °C
[1]; surface temperature of heating element, resistance heating, heat-not-burn cigarette containing arecoline salt, puff duration 1 s
  Puff duration (temperature) 1 s: 153.1 °C
[1]; surface temperature of heating element, resistance heating, heat-not-burn cigarette containing arecoline salt, puff duration 2 s
  Puff duration (temperature) 2 s: 228.3 °C
[1]; surface temperature of heating element, resistance heating, heat-not-burn cigarette containing arecoline salt, puff duration 3 s
  Puff duration (temperature) 3 s: 241.1 °C
[2]
  Change of appearance when placed at room temperature: darkens slowly when placed at room temperature
[3]
  Conversion rate compared with arecoline hydrobromide: obviously higher than that of the arecoline hydrobromide
[4]
  Puff experience compared with arecoline hydrobromide (pleasure, increased heart rate, ruddy face, body fever, slight sweating): obviously superior to the arecoline hydrobromide
